According to patent publication US11939361B2, “Compositions of peptide inhibitors of Interleukin-23 receptor” (Janssen Pharmaceutica NV, priority 2020, dated 2024):

Columns and labels:
[1] = Solubility of acetate form of SEQ ID NO: 1 in various media; type: physicochemical
Experimental: An acetate form of SEQ ID NO: 1 prepared according to Example 1 was evaluated for solubility under various conditions.

[2] = Rat PK Study 2: effect of NaC10 concentration, IC injection; type: in vivo, rats; settings: peptide 10 mg/Kg
Text: In this example, the effect of the concentration of NaCl0 was studied.

[3] = Storage of phosphate buffered solution; type: physicochemical; settings: 0.33-33 mg/mL in 50 mM sodium phosphate buffer, 2-8° C.
Experimental: The resultant solution can be stored at 2-8° C. for up to 4 weeks.

[4] = Dog PK Study: single PO dose of tablets/solution; settings: peptide 10 mg/Kg, NaC10 50 mg/Kg
Experimental: Poloxamer P188 was also assessed, in combination with NaCl0 with the aim of determining potential synergism. […] Control tablet cores (immediate-release) without the absorption enhancers were also manufactured and dosed as control in the study.
Following dosing of tablets, 10 mL additional water was given. The normal dry diet was returned 2 hours post-dose.

[5] = test system: IL-23-induced IL-17A secretion; experiment: In vitro rat whole blood assay of IL-23-induced IL-17A secretion; type: cell-based; settings: as quoted in Example 12

For `CC(=O)NCCCC[C@@H]1NC(=O)[C@H](Cc2c[nH]c3c(C)cccc23)NC(=O)[C@H]([C@@H](C)O)NC(=O)[C@H](CC(N)=O)NC(=O)[C@@H](NC(C)=O)C(C)(C)SSC(C)(C)[C@@H](C(=O)N[C@@H](Cc2ccc(OCCN)cc2)C(=O)N[C@@H](Cc2ccc3ccccc3c2)C(=O)NC2(C(=O)N[C@@H](CCC(=O)O)C(=O)N[C@@H](CC(N)=O)C(=O)N[C@@H](Cc3cccnc3)C(=O)N(C)CC(N)=O)CCOCC2)NC1=O` [Acetate Form of SEQ ID NO: 1], the solubility ([1]; 0.01 N HCl, aqueous buffer) was 95 mg/mL, the solubility ([1]; 0.1 N HCl, aqueous buffer) was 780 mg/mL and the solubility ([1]; 0.1 N NaOH, aqueous buffer) was > 870 mg/mL. For the same compound, the solubility ([1]; aqueous buffer, Borate buffer pH 9) was > 220 mg/mL, the solubility ([1]; aqueous buffer, Citrate buffer pH 2) was 270 mg/mL and the solubility ([1]; aqueous buffer, Citrate buffer pH 5) was 6.9 mg/mL. For the same compound, the solubility ([1]; aqueous buffer, Phosphate buffer pH 12) was > 440 mg/mL, the solubility ([1]; aqueous buffer, phosphate buffer pH 7) was 7.5 mg/mL and the solubility ([1]; water) was 35 mg/mL. For the same compound, the “increase of systemic exposure given by NaC10” value ([2]; NaC10 20 mg/Kg) was “minimal”, the “absorption enhancement by NaC10” value ([2]; NaC10 50 mg/Kg) was “highest absorption enhancement” and the “oral bioavailability on increasing NaC10” value ([2]; NaC10 100 mg/Kg or 200 mg/Kg) was “did not further increase”. For the same compound, the “effect of NaC10 on systemic exposure” value ([2]; all NaC10 concentrations tested (20, 50, 200 mg/Kg)) was “increased”, the “Storage time of solution” value [3] was “up to 4 weeks” and the “effect of NaC10 on systemic exposure, all tablets” value [4] was “increased”. The “IC50 values presented in Table 14” value [5] was 0.10 to 0.47 ng/mL and the IC50 ([5]; read-out: IC50 values presented in Table 14) was 0.054 to 0.5 nM.
